Data reported in patent publication US20060009637A1, “Molecules as produced by endothermic chemical reactions with anhydrous D-ribose” (priority 2004, published 2006).

Assays:
[1] = solubility in water; type: physicochemical; details: for solubility in water: result in words, monohydrate
[2] = test system: heart failure; details: people with heart failure; cited from earlier work
[3] = toxicity of the monohydrate of D-ribose

O=C[C@H](O)[C@H](O)[C@H](O)CO [anhydrous D-ribose, D-ribose]
water needed to dissolve a kilogram of anhydrous D-ribose ([1]; per kilogram of anhydrous D-ribose, gives clear translucent amber viscous solution if enough time is allowed): less than 168 grams

CN(CC(=O)O)C(=N)N [creatine]
ejection fraction [2]: did not improve | skeletal muscle action [2]: increasing both strength and endurance

O.O=C[C@H](O)[C@H](O)[C@H](O)CO [ribose monohydrate, D-ribose monohydrate]
toxicity [3]: virtually no toxicity | solubility in water ([1]; listed as H2O-ribose product): exceptionally high | solubility in water [1]: very soluble in water
